Reference: US12552753B2, “Methods and compositions for targeting Tregs using CCR8 inhibitors” (Nanjing Immunophage Biomedical Co., Ltd., priority 2020, dated 2026)
Counter-ions that a name gives are not always drawn.

target: CCR8 (Homo sapiens, UniProt P51685); assay: Tango assay (Tango-CCR8-Gal4-CHO-K1 cells, CCL1-stimulated, ONE-Glo luminescence); settings: Tango Assay IC50, Inhibition of CCR8 Tango cell in vitro
Sequence (P51685 whole entry, the tested form may be a part): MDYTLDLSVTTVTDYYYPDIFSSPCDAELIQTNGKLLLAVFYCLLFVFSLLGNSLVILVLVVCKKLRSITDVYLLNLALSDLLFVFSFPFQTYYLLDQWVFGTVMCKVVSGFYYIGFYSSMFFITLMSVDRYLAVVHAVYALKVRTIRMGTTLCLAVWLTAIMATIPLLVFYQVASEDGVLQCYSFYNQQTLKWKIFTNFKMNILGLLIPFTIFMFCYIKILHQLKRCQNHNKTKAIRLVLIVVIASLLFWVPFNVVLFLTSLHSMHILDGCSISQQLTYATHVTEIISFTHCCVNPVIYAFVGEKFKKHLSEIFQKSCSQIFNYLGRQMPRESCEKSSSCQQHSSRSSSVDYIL

| IC50 [nM] | Compound |
| --- | --- |
| 0.2 | Cc1ccccc1C(=O)Nc1ccc(S(=O)(=O)NC(C)C23CC4CC(CC(C4)C2)C3)c2ccccc12 (stereo not drawn) [Compound 84, N-(4-(N-(1-((3r,5r,7r)-adamantan-1-yl)ethyl)sulfamoyl)naph-thalen-1-yl)-2-methylbenzamide] |
| > 10000 | Cc1ccccc1C(=O)Nc1ccc(S(=O)(=O)Nc2ccc3c(c2)C(N(C)CCN(C)C)CCC3)c2ccccc12 (stereo not drawn) [Compound 99, N-(4-(N-(8-((2-(dimethylamino)ethyl)(methyl)amino)-5,6,7,8-tetrahydronaphthalen-2-yl)sulfamoyl)naphthalen-1-yl)-2-methylbenzamide] |
| 0.4 | Cc1ccccc1C(=O)Nc1ccc(S(=O)(=O)NC(C)C2CC3CCC2CC3)c2ccccc12 (stereo not drawn) [Compound 77, N-(4-(N-(1-(bicyclo[2.2.2]octan-2-yl)ethyl)sulfamoyl)naph-thalen-1-yl)-2-methylbenzamide] |
| 104 | Cc1ccccc1C(=O)Nc1ccc(S(=O)(=O)N[C@H](C)C2CCNCC2)c(Cl)c1Cl [Compound 244A, (R)-N-(2,3-dichloro-4-(N-(1-(piperidin-4-yl)ethyl)sulfamoyl)phen-yl)-2-methylbenzamide hydrochloride] |
| 520 | COC(=O)[C@@H](NS(=O)(=O)c1ccc(NC(=O)c2ccccc2C)c2ccccc12)C1CCCCC1 [Compound 49, (S)-methyl 2-cyclohexyl-2-(4-(2-methylbenzamido)naph-thalene-1-sulfonamido)acetate] |
| 158 | Cc1ccccc1C(=O)Nc1ccc(S(=O)(=O)N[C@H](C)C2CCNCC2)c(Cl)c1C [Compound 179A, (R)-N-(3-chloro-2-methyl-4-(N-(1-(piperidin-4-yl)eth-yl)sulfamoyl)phen-yl)-2-methylbenzamide, hydrochloride] |
| 930 | Cc1ccccc1C(=O)Nc1ccc(S(=O)(=O)NC(C)C2CCCN(C(=O)OC(C)(C)C)C2)c2ccccc12 (stereo not drawn) [Compound 24, tert-butyl 3-(1-(4-(2-methylbenzamido)naph-thalene-1-sulfonamido)ethyl)piper-idine-1-carboxylate] |
| 1170 | CCCN1CCCN(c2cc(NS(=O)(=O)c3ccc(NC(=O)c4ccccc4C)c4ccccc34)ccc2OC)CC1 [Compound 4, N-(4-(N-(4-methoxy-3-(4-propyl-1,4-diazepan-1-yl)phenyl)sulfamoyl)naphthalen-1-yl)-2-methylbenzamide] |
| 205 | Cc1ccccc1C(=O)Nc1ccc(S(=O)(=O)NC(C)C2CCCN(C(=O)CN)C2)c2ccccc12 (single isomer, unassigned) [Compound 156C, N-(4-(N-(1-(1-(2-aminoacetyl)piperidin-3-yl)ethyl)sulfamoyl)naph-thalen-1-yl)-2-methylbenzamide] |
| > 10000 | CCCC(=O)N1CCCC(CNS(=O)(=O)c2ccc(NC(=O)c3ccccc3C)c3ccccc23)C1 (stereo not drawn) [Compound 14, N-(4-(N-((1-butyrylpiperidine-3-yl)methyl)sulfamoyl)naphthalen-1-yl)-2-methylbenzamide] |
| 46 | Cc1ccccc1C(=O)Nc1ccc(S(=O)(=O)N[C@H](C)C2CCNCC2)c(F)c1C [Compound 177A, (R)-N-(3-fluoro-2-methyl-4-(N-(1-(piperidin-4-yl)ethyl)sulfamoyl)phen-yl)-2-methylbenzamide, hydrochloride] |
| > 10000 | Cc1ccccc1C(=O)Nc1ccc(S(=O)(=O)NC2CCC23CCNCC3)c2ccccc12 (stereo not drawn) [Compound 90, N-(4-(N-(7-azaspiro[3.5]nonan-1-yl)sulfamoyl)naphthalen-1-yl)-2-methylbenzamide] |
| > 100000 | Cc1ccccc1C(=O)Nc1ccc(S(=O)(=O)NC(C)(C)c2ccccc2)c2ccccc12 [Compound 283, 2-methyl-N-(4-(N-(2-phenylpropan-2-yl)sulfamoyl)naphthalen-1-yl)benzamide] |
| 1360 | CC(=O)Nc1ccccc1COc1ccc(S(=O)(=O)NC(C)C2CCCCC2)c2ccccc12 (stereo not drawn) [Compound 151, N-(2-(((4-(N-(1-cyclohexylethyl)sulfamoyl)naphthalen-1-yl)oxy)methyl)phenyl)acetamide] |
| 283 | Cc1ccccc1C(=O)Nc1ccc(S(=O)(=O)NC(C)C2CCCCN2C(=O)OC(C)(C)C)c2ccccc12 (single isomer, unassigned) [Compound 67, tert-butyl 2-(1-(4-(2-methylbenzamido)naph-thalene-1-sulfonamido)ethyl)piper-idine-1-carboxylate] |

The next lines start with the compound.

| Compound | IC50 [nM] |
| --- | --- |
| Cc1ccccc1C(=O)Nc1cc(Cl)c(S(=O)(=O)N[C@@H](C)C2CCNCC2)cc1Cl [Compound 243B, (S)-N-(2,5-dichloro-4-(N-(1-(piperidin-4-yl)ethyl)sulfamoyl)phen-yl)-2-methylbenzamide hydrochloride] | > 100000 |
| CCC(NS(=O)(=O)c1ccc(NC(=O)c2ccccc2C)c(C)c1)C1CCNCC1 (stereo not drawn) [Compound 223A, 2-methyl-N-(2-methyl-4-(N-(1-(piperidin-4-yl)propyl)sulfamoyl)phenyl)benzamide hydrochloride] | 73 |
| Cc1ccccc1C(=O)Nc1ccc(S(=O)(=O)N[C@H](C)C2CCNCC2)cc1F [Compound 190A, (R)-N-(2-fluoro-4-(N-(1-(piperidin-4-yl)ethyl)sulfamoyl)phen-yl)-2-methylbenzmaide hydrochloride] | 58 |
| CC(NS(=O)(=O)c1ccc2nc(Cc3ccccc3)[nH]c2c1)C1CCCCC1 (stereo not drawn) [Compound 144, 2-benzyl-N-(1-cyclohexylethyl)-1H-benzo[d]imidazole-6-sulfonamide] | 2100 |
| Cc1cc(S(=O)(=O)NC(C(C)C)C2CCNCC2)ccc1NC(=O)c1ccccc1C (stereo not drawn) [Compound 224A, 2-methyl-N-(2-methyl-4-(N-(2-methyl-1-(piperidin-4-yl)propyl)sulfamoyl)phenyl)benzamide hydrochloride] | 494 |
| Cc1ccccc1C(=O)Nc1ccc(S(=O)(=O)NC2CCOc3ccccc32)cc1 (stereo not drawn) [Compound 53, N-(4-(N-(chroman-4-yl)sulfamoyl)phenyl)-2-methylbenzamide] | > 10000 |
| Cc1ccccc1C(=O)Nc1ccc(S(=O)(=O)N[C@H](C)C2CCN(C)CC2)c(C)c1Cl [Compound 308, (R)-N-(2-chloro-3-methyl-4-(N-(1-(1-methylpiperidin-4-yl)ethyl)sulfamoyl)phenyl)-2-methylbenzamide] | > 100000 |
| COc1cc(S(=O)(=O)NC(C)C2CC3CCC2CC3)c(OC)cc1NC(=O)c1ccccc1C (stereo not drawn) [Compound 183, N-(4-(N-(1-(bicyclo[2.2.2]octan-2-yl)ethyl)sulfamoyl)-2,5-dimethoxyphenyl)-2-methylbenzamide] | > 10000 |
| CC(NS(=O)(=O)c1ccc2[nH]cnc2c1)C1CCCCC1 (stereo not drawn) [Compound 78, N-(1-cyclohexylethyl)-1H-benzo[d]imidazole-5-sulfonamide] | > 10000 |
| Cc1cc(S(=O)(=O)N[C@H](C)C2C[C@@H]3CCC2N3)ccc1NC(=O)c1ccccc1C (stereo partly drawn) [Compound 228A, N-(4-(N-(1-(exo-7-azabicyclo[2.2.1]heptan-2-yl)ethyl)sulfamoyl)-2-methylphenyl)-2-methylbenzamide hydrochloride] | > 100000 |
| Cc1cc(S(=O)(=O)N[C@H](C)C2CCNCC2)ccc1NC(=O)c1ccccc1C [Compound 161A, (R)-2-methyl-N-(2-methyl-4-(N-(1-(piperidin-4-yl)ethyl)sulfamoyl)phen-yl)benzamide hydrochloride] | 42 |
| Cc1cc(S(=O)(=O)NC(C)C2CCNCC2)ccc1NC(=O)c1ccccc1C (stereo not drawn) [Compound 167A, 2-methyl-N-(2-methyl-4-(N-(1-(piperidin-4-yl)ethyl)sulfamoyl)phen-yl)benzamide hydrochloride] | 46 |
| Cc1cc(S(=O)(=O)N[C@H](C)C2CCN(C)CC2)ccc1NC(=O)c1ccc(F)cc1C [Compound 276, (R)-4-fluoro-2-methyl-N-(2-methyl-4-(N-(1-(1-methylpiperidin-4-yl)ethyl)sulfamoyl)phenyl) benzamide hydrochloride] | 10 |
| COc1cc(NC(=O)c2ccccc2C)c(C)cc1S(=O)(=O)N[C@H](C)C1CCNCC1 [Compound 314, (R)-N-(5-methoxy-2-methyl-4-(N-(1-(piperidin-4-yl)ethyl)sulfamoyl)phen-yl)-2-methylbenzamide hydrochloride] | 17 |
| O=S(=O)(NC1CCOCC1)c1ccc(-c2nc3ccccc3[nH]2)cc1 [Compound 109, 4-(1H-benzo[d]imidazol-2-yl)-N-(tetrahydro-2H-pyran-4-yl)benzenesulfonamide] | > 10000 |
| Cc1cc(S(=O)(=O)NC(C)C2CC3CCC2CC3)c(C)cc1NC(=O)c1ccccc1C (stereo not drawn) [Compound 170, N-(4-(N-(1-(bicyclo[2.2.2]octan-2-yl)ethyl)sulfamoyl)-2,5-dimethylphenyl)-2-methylbenzamide] | 3.7 |
| Cc1ccccc1C(=O)Nc1ccc(S(=O)(=O)NC(C)C23CCN(CC2)CC3)c2ccccc12 (stereo not drawn) [Compound 131, 2-methyl-N-(4-(N-(1-(quinuclidin-4-yl)ethyl)sulfamoyl)naphthalen-1-yl)benzamide] | 303 |
| Cc1cc(S(=O)(=O)NC(C)(C)C2CCN(C)CC2)ccc1NC(=O)c1ccccc1C [Compound 291, 2-methyl-N-(2-methyl-4-(N-(2-(1-methylpiperidin-4-yl)propan-2-yl)sulfamoyl)phenyl) benzamide] | 245 |

same assay, conditions: read-out: Tango Assay IC50, Inhibition of CCR8 Tango cell in vitro

| IC50 [nM] | Compound |
| --- | --- |
| > 10000 | Cc1ccccc1C(=O)Nc1ccc(S(=O)(=O)NC(C)C2CCCCN2)c2ccccc12 (stereo not drawn) [Compound 69B, 2-methyl-N-(4-(N-(1-(piperidin-2-yl)ethyl)sulfamoyl)naph-thalen-1-yl)benzamide] |
| 112 | Cc1ccccc1C(=O)Nc1ccc(S(=O)(=O)NC(C)C2CCCNC2)c2ccccc12 (stereo not drawn) [Compound 17, 2-methyl-N-(4-(N-(1-(piperidin-3-yl)ethyl)sulfamoyl)naph-thalen-1-yl)benzamide] |
| 24 | COC1CCC([C@@H](C)NS(=O)(=O)c2ccc(NC(=O)c3ccccc3C)c(C)c2)CC1 (single isomer, unassigned) [Compound 293A, N-(4-(N-(1-(4-methoxycyclohexyl)ethyl)sulfamoyl)-2-methylphenyl)-2-methylbenzamide] |
